# Reference: ChEMBL document CHEMBL1136053, “Development of new hydrogen-bond descriptors and their application to comparative molecular field analyses” (J Med Chem, 2002)
# Non-standard residues stand in square brackets, D forms with d. Residues, ends and D or L forms follow the SMILES beside them. ξ: configuration not given here. *: point of attachment. ξF = NC(Cc1ccccc1)C(=O)O; Cbz = O=C(OCc1ccccc1)*; NHOH = ON*
# Target: T1, Thermolysin (Bacillus thermoproteolyticus, UniProt P00800)
# T1 sequence (P00800 whole entry): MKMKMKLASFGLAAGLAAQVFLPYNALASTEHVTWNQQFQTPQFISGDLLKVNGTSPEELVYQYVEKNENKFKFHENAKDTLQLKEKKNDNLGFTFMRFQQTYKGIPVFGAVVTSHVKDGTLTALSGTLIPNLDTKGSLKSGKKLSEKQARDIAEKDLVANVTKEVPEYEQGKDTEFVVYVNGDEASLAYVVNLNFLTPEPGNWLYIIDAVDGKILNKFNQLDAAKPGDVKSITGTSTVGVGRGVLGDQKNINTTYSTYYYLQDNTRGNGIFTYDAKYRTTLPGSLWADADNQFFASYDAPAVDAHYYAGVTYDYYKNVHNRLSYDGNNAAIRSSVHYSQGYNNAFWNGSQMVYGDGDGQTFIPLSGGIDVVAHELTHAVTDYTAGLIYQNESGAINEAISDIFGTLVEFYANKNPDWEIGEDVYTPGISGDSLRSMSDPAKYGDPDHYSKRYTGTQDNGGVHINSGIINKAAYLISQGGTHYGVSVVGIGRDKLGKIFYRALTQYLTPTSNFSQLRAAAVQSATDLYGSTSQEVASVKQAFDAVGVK
# Test: pKi value expresses binding affinity against thermolysin pKi = -logKi (where Ki is in mol/L)
Structure (SMILES),Ki,pKi
C[C@H](NC(=O)[C@H](C)NP(=O)(O)O)C(=O)O,87.1 µM,
C[C@H](C(=O)NO)C(=O)N[C@@H](C)C(=O)NCC(N)=O,1100 µM,
CC(C)C[C@H](NC(=O)CNC(=O)OCc1ccccc1)C(N)=O,20900 µM,
C[C@H](NC(=O)[C@H](Cc1ccccc1)NS(=O)(=O)O)C(=O)NCC(N)=O,4270 µM,
C[C@H](NC(=O)[C@H](Cc1ccccc1)NP(=O)(O)S)C(=O)NCC(N)=O (some centres not stated),6.92 µM,
C[C@H](NC(=O)[C@H](Cc1ccccc1)C(=O)NO)C(=O)NCC(=O)O,0.661 µM,
CC(C)C[C@H](C(=O)NO)C(=O)N[C@@H](C)C(=O)NCC(N)=O,0.479 µM,
C[C@H](NC(=O)[C@H](Cc1ccccc1)NC(=O)CO)C(=O)NCC(N)=O,2880 µM,
C[C@H](NC(=O)[C@H](Cc1ccccc1)C(=O)NO)C(=O)NCC(N)=O,0.661 µM,
CC(C)C[C@H](NC(=O)CNC(=O)CNC(=O)OCc1ccccc1)C(=O)NO,38.9 µM,
CC(=O)CC(=O)N[C@@H](Cc1ccccc1)C(=O)N[C@@H](C)C(=O)NCC(N)=O,3090 µM,
C[C@H](NC(=O)[C@@H](CS)Cc1ccccc1)C(=O)NCC(N)=O,0.759 µM,
C[C@H](NC(=O)[C@H](Cc1ccccc1)C(=O)O)C(=O)NCC(N)=O,417 µM,
CC(C)C[C@@H](C(=O)N[C@@H](C)C(=O)NCC(N)=O)N(O)C=O,3390 µM,
CC(C)C[C@H](NC(=O)CNC(=O)OCc1ccccc1)C(=O)NO,12.9 µM,
CC[C@H](C)[C@H](NP(=O)(O)O)C(=O)N[C@@H](C)C(=O)O,0.363 µM,
O=C(NC(Cc1ccccc1)C(=O)O)OCc1ccccc1 (configuration not stated),513 µM,
CC(=O)N(O)[C@@H](CC(C)C)C(=O)N[C@@H](C)C(=O)NCC(N)=O,3390 µM,
CC(C)CC(OP(=O)(O)CNC(=O)OCc1ccccc1)C(=O)NC(C)C(=O)O (configuration not stated),12.9 µM,
CC(C)CC(OP(=O)(O)C(Cc1ccccc1)NC(=O)OCc1ccccc1)C(=O)NC(C)C(=O)O (configuration not stated),0.0447 µM,
CC(C)CC(NC(CCc1cccc(CN)c1)C(=O)O)C(=O)NC(Cc1ccccc1)C(=O)O (configuration not stated),1.7 µM,
CC(C)CC(NC(=O)CNC(=O)OCc1ccccc1)C(=O)N(C)O (configuration not stated),2240 µM,
CC(C)CC(OP(=O)(O)C(C)NC(=O)OCc1ccccc1)C(=O)NC(C)C(=O)O (configuration not stated),1.82 µM,
CC(C)CC(NC(CCNC(=O)C(Cc1ccccc1)NC(=O)OCc1ccccc1)C(=O)O)C(=O)NC(Cc1ccccc1)C(=O)O (configuration not stated),0.219 µM,

Structure (SMILES),Ki,pKi
CC(C)CC(NC(C)C(=O)O)C(=O)NC(Cc1ccccc1)C(=O)O (configuration not stated),2.82 µM,
CC(C)CC(NC(CCc1ccccc1)C(=O)O)C(=O)NC(Cc1ccccc1)C(=O)O (configuration not stated),0.603 µM,
CC(C)CC(NP(=O)(O)CNC(=O)OCc1ccccc1)C(N)=O (configuration not stated),0.759 µM,
CC(C)C[C@@H](NC(=O)CNC(=O)OCc1ccccc1)C(=O)NO,47.9 µM,
CCCCCCP(=O)(O)CC(CC(C)C)C(=O)NC(Cc1c[nH]c2ccccc12)C(=O)NC (configuration not stated),0.0525 µM,
CC(C)CC(CP(=O)(O)CNC(=O)OCc1ccccc1)C(=O)NCC(=O)O (configuration not stated),0.302 µM,
CC(C)CC(NP(=O)(O)CNC(=O)OCc1ccccc1)C(=O)NC(Cc1ccccc1)C(=O)O (configuration not stated),0.0759 µM,
CC(C)CC(OP(=O)(O)[C@@H](Cc1ccccc1)NC(=O)OCc1ccccc1)C(=O)NC(C)C(=O)O (some centres not stated),30.2 µM,
CC(C)CC(OP(=O)(O)CNC(=O)OCc1ccccc1)C(N)=O (configuration not stated),661 µM,
CC(C)C[C@H](NC(CCc1ccccc1)C(=O)O)C(=O)N[C@@H](Cc1c[nH]c2ccccc12)C(=O)O (some centres not stated),0.0339 µM,
CC(C)CC(NP(=O)(O)[C@@H](Cc1ccccc1)NC(=O)OCc1ccccc1)C(=O)NC(C)C(=O)O (some centres not stated),0.479 µM,
O=C(O)CC(=O)NC(CS)Cc1ccccc1 (configuration not stated),2.29 µM,
CC(C)CC(OP(=O)(O)CNC(=O)OCc1ccccc1)C(=O)NC(Cc1ccccc1)C(=O)O (configuration not stated),53.7 µM,
CCCCCCP(=O)(O)NC(CC(C)C)C(=O)NC(Cc1c[nH]c2ccccc12)C(=O)NC (configuration not stated),0.00151 µM,
CC(C)CC(OP(=O)(O)[C@@H](CC(C)C)NC(=O)OCc1ccccc1)C(=O)NC(C)C(=O)O (some centres not stated),41.7 µM,
CC(C)CC(CP(=O)(O)CNC(=O)OCc1ccccc1)C(=O)NC(C)C(=O)O (configuration not stated),0.0186 µM,
CC(C)CC(OP(=O)(O)[C@@H](C)NC(=O)OCc1ccccc1)C(=O)NC(C)C(=O)O (some centres not stated),24 µM,
CC(C)CC(NP(=O)(O)O)C(N)=O (configuration not stated),79.4 µM,
CC(NC(=O)C(Cc1ccccc1)NP(=O)(O)O)C(=O)NCC(N)=O (configuration not stated),2.57 µM,
CC(C)CC(NC(CCNC(=O)C(C)NC(=O)OCc1ccccc1)C(=O)O)C(=O)NC(Cc1ccccc1)C(=O)O (configuration not stated),0.851 µM,
CC(C)CC(OP(=O)(O)C(CC(C)C)NC(=O)OCc1ccccc1)C(=O)NC(C)C(=O)O (configuration not stated),0.676 µM,
CC(C)CC(NP(=O)(O)OC1OC(C)C(O)C(O)C1O)C(=O)NC(Cc1c[nH]c2ccccc12)C(=O)O (configuration not stated),0.0282 µM,
CCCCCCP(=O)(O)OC(CC(C)C)C(=O)NC(Cc1c[nH]c2ccccc12)C(=O)NC (configuration not stated),1.45 µM,
CC(C)CC(NC(CCNC(=O)C(Cc1ccccc1)NC(=O)OCc1ccccc1)C(=O)O)C(=O)NC(Cc1c[nH]c2ccccc12)C(=O)O (configuration not stated),0.011 µM,

Structure (SMILES),Ki,pKi
CC(C)CC(CP(=O)(O)CNC(=O)OCc1ccccc1)C(=O)NC(CC(C)C)C(=O)O (configuration not stated),0.182 µM,
O=C(O)C(Cc1ccccc1)NP(=O)(O)O (configuration not stated),72.4 µM,
CC(C)CC(NP(=O)(O)O)C(=O)NC(Cc1ccccc1)C(=O)O (configuration not stated),0.0191 µM,
CC(C)CC(NC(=O)NNC(=O)OCc1ccccc1)C(=O)NO (configuration not stated),2.69 µM,
CC(C)CC(N)C(=O)NO (configuration not stated),191 µM,
CC(C)C[C@@H](NC(=O)CNC(=O)CNC(=O)OCc1ccccc1)C(=O)NO,,3.6
CCOC(=O)C(Cc1ccccc1)C(=O)NO (configuration not stated),20 µM,
CC(C)CC(NC(=O)C(CC(C)C)OP(=O)(O)CNC(=O)OCc1ccccc1)C(=O)O (configuration not stated),8.91 µM,
CC(C)CC(OP(=O)(O)CNC(=O)OCc1ccccc1)C(=O)NCC(=O)O (configuration not stated),229 µM,
CC(C)CC(NP(=O)(O)CNC(=O)OCc1ccccc1)C(=O)NCC(=O)O (configuration not stated),0.269 µM,
CCCCC(NC(CC(C)C)C(=O)NC(Cc1ccccc1)C(=O)O)C(=O)O (configuration not stated),3800 µM,
CC(C)CC(NC(=O)C(CC(C)C)NP(=O)(O)CNC(=O)OCc1ccccc1)C(=O)O (configuration not stated),0.00912 µM,
CC(C)CC(NP(=O)(O)CNC(=O)OCc1ccccc1)C(=O)NC(C)C(=O)O (configuration not stated),0.0166 µM,
O=C(CCc1ccccc1)NC(Cc1ccccc1)C(=O)O (configuration not stated),1620 µM,
CC(C)CC(NC(CCNC(=O)CNC(=O)OCc1ccccc1)C(=O)O)C(=O)NC(Cc1ccccc1)C(=O)O (configuration not stated),0.407 µM,
CC(C)CC(NP(=O)(O)C(Cc1ccccc1)NC(=O)OCc1ccccc1)C(=O)NC(C)C(=O)O (configuration not stated),6.76e-05 µM,
CC(C)CC(CP(=O)(O)CNC(=O)OCc1ccccc1)C(=O)NC(Cc1ccccc1)C(=O)O (configuration not stated),0.0661 µM,
CC(C)CC(CP(=O)(O)CNC(=O)OCc1ccccc1)C(N)=O (configuration not stated),1.41 µM,
CC(C)CC(NC(=O)NNC(=O)OCc1ccccc1)C(N)=O (configuration not stated),380 µM,
CC(NC(=O)C(Cc1ccccc1)C(=O)NO)C(=O)NCC(=O)Nc1ccc([N+](=O)[O-])cc1 (configuration not stated),0.427 µM,
NC(=O)CNC(=O)C(Cc1ccc(O)cc1)NC(=O)OCc1ccccc1 (configuration not stated),219 µM,
O=C(CNC(=O)CNC(=O)OCc1ccccc1)NO (Cbz-Gly-Gly-{NHOH}),933 µM,
CC(C)C[C@H](NC(=O)OCc1ccccc1)C(=O)NCC(N)=O (Cbz-Leu-Gly-NH2),3090 µM,
NC(=O)CNC(=O)C(Cc1ccccc1)NC(=O)OCc1ccccc1 (configuration not stated) (Cbz-[ξF]-Gly-NH2),347 µM,
